Measured values taken from patent US7977120B2, “Fluorescent sensors for cellular amines” (The Curators of the University of Missouri, priority 2005, dated 2011).
Entries after “also recorded” stand apart in the source; their conditions may differ.

Key:
[1] = UV-vis absorption / fluorescence titration of sensor Ia with dopamine; format: binding; details: excited at 484 nm, FIG. 8
Text: (§1) First, the sensors I produce a large chromophoric response when reacting with primary amines under physiological conditions. One exemplary coumarin-based sensor, 2-(((5-(7-(diethylamino)-3-formyl-2-oxo-2H-chromen-4-yl)pentyl)(methyl)amino)methyl)phenylboronic acid, sensor Ia, has been examined spectrophotometrically by titration with dopamine under neutral aqueous conditions in which a reducing agent is included to suppress oxidation of the air-sensitive catechol group.
The titration conditions are 10 μM sensor Ia with 100 mM Na2S2O3, 50 mM HEPES, 20 mM NaCl, pH=7.0, and at 37° C. […] Therefore, the inventive coumarin-based sensors I are selective for primary amines. See also, Org. Lett. 2004, 6(21), 3727-3730, which is incorporated herein by reference.
Table 2 also lists the fluorescence response of the sensor Ia as Isat/I0 (the maximum fluorescence change at saturation) for three different excitation wavelengths: 446 nm, 484 nm, and 495 nm. By exciting sensor Ia at the aldehyde absorption maximum (446 nm), a decrease in fluorescence has been observed for all analytes because the sensor shifted from the aldehyde to the iminium ion form. At higher wavelengths of excitation, simple amines give the typical large increase in fluorescence since the iminium ion preferentially absorbs at these wavelengths. […] The fluorescence quenching effect is found to be directly related to the catechol group. […]

[2] = Titration of Sensor Ia with various analytes (UV-vis and fluorescence); format: binding; details: for Isat/I0 (λex = 446 nm): fluorescence intensity at saturation from theoretical fit to binding isotherm; for Isat/I0 (λex = 484 nm) / Isat/I0 (λex = 495 nm): fluorescence intensity at saturation from theoretical fit; for Kn (association constant): fluorescence spectroscopy, λem = 505 nm, error ± 20%, triplicate titration; for Isat/I0 (λex = 484 nm) / Kn (association constant): λex = 484 nm; for binding affinity for sensor Ia (in words): compared with catecholamines
Method: as §1, with “One” for “First, the sensors I produce a large chromophoric response when reacting with primary amines under physiological conditions. One”
The titration conditions are 10 μM sensor Ia with 100 mM Na2S2O3, 50 mM HEPES, 20 mM NaCl, pH=7.0, and at 37° C. […] See also, Org. Lett. 2004, 6(21), 3727-3730, which is incorporated herein by reference.
Binding constants (Ka) are determined by fluorescence titrations.

[3] = UV-vis and fluorescence titration of quinolone sensors with diaminopropane; format: binding; details: for Isat/I0, Diaminopropane / Ka, Diaminopropane: Table 3; for Ka, Diaminopropane: 1:1 methanol-buffer
Text: (§2) The present invention further discloses that the Quinolone-Dimer Sensors III can also provide detection for diamine analytes. The certain exemplary dimer sensors IIIa-g have been probed spectroscopically by UV-vis and fluorescence titration experiments. […] Moreover, by variation of the linker portion of the sensor III, useful selectivities for different length diamino-analytes have been achieved.
(§3) First, the absorption spectra show trends similar to those observed with the coumarin sensors in which a large red shift in absorption maximum is observed upon addition of diamines to the sensors. […] As shown in FIG. 11(a), when sensor IIIg is titrated with diaminopropane, a 28 nm shift in absorbance is observed consistent with a shift from aldehyde to iminium ion forms. The red shift in absorption has been attributed to the hydrogen bond between the formed iminium ion and the carbonyl group of the chromophore. In fluorescence mode, by exciting the chromophore at 495 nm, a large increase in fluorescence was observed upon titration with the diamine (FIG. 11(b)). The fluorescence increase is fitted to a one-site binding isotherm which gave a binding constant of 6700 M^−1 with a maximum fluorescence increase at saturation (Isat/I0) of 6.6-fold.
(§4) Generally, the dimeric sensors were not as soluble as the monomeric derivatives, so binding studies were performed in 1:1 methanol:buffer (10 mM HEPES, pH=7.4). Water solubilizing groups, such as polyethylene groups, can be provided on the quinolone core in a straightforward synthetic manner. Binding constants and maximum fluorescence changes (Isat/I0) are provided in Table 4 for a few representative guests.

[4] = Fluorescence titration of quinolone sensors with ornithine; format: binding; details: Table 3; for Ka, Ornithine: 1:1 methanol-buffer
Text: (§5) The present invention further discloses that the Quinolone-Dimer Sensors III can also provide detection for diamine analytes. The certain exemplary dimer sensors IIIa-g have been probed spectroscopically by UV-vis and fluorescence titration experiments. […] Moreover, by variation of the linker portion of the sensor III, useful selectivities for different length diamino-analytes have been achieved. First, the absorption spectra show trends similar to those observed with the coumarin sensors in which a large red shift in absorption maximum is observed upon addition of diamines to the sensors. […] As shown in FIG. 11(a), when sensor IIIg is titrated with diaminopropane, a 28 nm shift in absorbance is observed consistent with a shift from aldehyde to iminium ion forms. The red shift in absorption has been attributed to the hydrogen bond between the formed iminium ion and the carbonyl group of the chromophore. In fluorescence mode, by exciting the chromophore at 495 nm, a large increase in fluorescence was observed upon titration with the diamine (FIG. 11(b)).

[5] = Relative affinity of dimer sensors across amine guests; format: binding; details: for guest selectivity (in words): comparison of guests, Tables 3 and 4
Text: The certain exemplary dimer sensors IIIa-g have been probed spectroscopically by UV-vis and fluorescence titration experiments.
Water solubilizing groups, such as polyethylene groups, can be provided on the quinolone core in a straightforward synthetic manner. Binding constants and maximum fluorescence changes (Isat/I0) are provided in Table 4 for a few representative guests.

[6] = Fluorescence titration of quinolone sensors with lysine; format: binding; details: Table 3; for Ka, Lysine: 1:1 methanol-buffer
Text: as §2, §3, §4

[7] = Fluorescence titration of quinolone sensors with butylamine; format: binding; details: Table 3; for Ka, Butylamine: 1:1 methanol-buffer, error ±20%, duplicate titrations; for Isat/I0, Butylamine: maximum change in fluorescence from theoretical fit
[8] = Fluorescence titration of quinolone sensors with diaminobutane; format: binding; details: Table 3; for Ka, Diaminobutane: 1:1 methanol-buffer
Text: as §5

[9] = Fluorescence titration of quinolone sensors with diaminopentane; format: binding; details: Table 3; for Ka, Diaminopentane: 1:1 methanol-buffer
Text: as §5

[10] = system: bovine adrenal chromaffin cells; experiment: Staining chromaffin cells with the simple monomer IIa (confocal microscopy); format: cell-based; details: for staining of cells seen by confocal microscopy: 0.5 μM, 15 minutes, 37 C, excitation 488 nm
Method: The present invention further provides that the Quinolone-Monomer Sensors II can sense catecholamines and map their movements in a live cell. The initial proof of concept has been carried out by staining chromaffin cells with the simple monomer IIa. Specifically, several sets of chromaffin cells (which contain norepinephrine) were freshly prepared on coverslips and various concentrations of IIa in media were added.
A stock solution of 50 mM in DMSO was diluted in cell culture media to yield a final concentration of 0.5 uM. Cells were incubated in this solution at 37 C for 15 minutes and then the cells were washed with cell culture media without dye and observed using a confocal microscope at room temperature. The excitation wavelength was 488 nm.
Several sets of chromaffin cells (which contain norepinephrine) were freshly prepared on coverslips and various concentrations of 112 in media were added. […] The nuclei are clearly visible as dark regions. […] Given that the sensor should bind equally well to all amines, it is likely that that the sensor is actively accumulating in the vesicles.

| Structure (SMILES) | Isat/I0 (λex = 446 nm) [2] | Isat/I0 (λex = 484 nm) [2] | Isat/I0 (λex = 495 nm) [2] | Kn (association constant) [2] | Isat/I0, Lysine [6] | Ka, Lysine [6] | Ka, Butylamine [7] | Isat/I0, Butylamine [7] | also measured |
| --- | --- | --- | --- | --- | --- | --- | --- | --- | --- |
| CCN(CC)c1ccc2c(CCCCCN(C)Cc3ccccc3B(O)O)c(C=O)c(=O)oc2c1 [Sensor Ia, 2-(((5-(7-(diethylamino)-3-formyl-2-oxo-2H-chromen-4-yl)pentyl)(methyl)amino)methyl)phenylboronic acid] | – | – | – | – | – | – | – | – | fluorescence on binding dopamine [1]: quenched upon binding dopamine |
| CNCC(O)c1ccc(O)c(O)c1 (stereo not shown) [epinephrine] | 0.73 | 0.76 | 0.77 | 5000 M⁻¹ | – | – | – | – | – |
| NCCc1ccc(O)c(O)c1 [dopamine] | 0.50 | 0.60 | – | 3400 M⁻¹ | – | – | – | – | – |
| NC1C(O)OC(CO)C(O)C1O (stereo not shown) | 0.55 | 5.9 | 27 | 5.0 M⁻¹ | – | – | – | – | – |
| N[C@H]1C(O)O[C@H](CO)[C@@H](O)[C@@H]1O (stereo partly shown) [glucosamine] | – | – | – | – | – | – | – | – | binding affinity for sensor Ia (in words) [2]: affinity similar to the simple amines |
| N[C@@H](CCC(=O)O)C(=O)O [glutamate] | – | – | – | – | – | – | – | – | binding affinity for sensor Ia (in words) [2]: low affinity |
| CN(C)c1ccc2c(SCCCCCSc3c(C=O)c(=O)n(Cc4ccccc4)c4cc(N(C)C)ccc34)c(C=O)c(=O)n(Cc3ccccc3)c2c1 [Sensor IIIg] | – | – | – | – | 27 | 2756 M⁻¹ | 43 M⁻¹ | 38 | Isat/I0, Diaminopropane [3]: 6.6; Ka, Diaminopropane ([3]; excitation 495 nm): 6700 M⁻¹; maximum fluorescence increase at saturation (Isat/I0) ([3]; excitation 495 nm, one-site binding isotherm, FIG. 11(b)): 6.6 fold; Isat/I0, Ornithine [4]: 20; Ka, Ornithine [4]: 2400 M⁻¹; guest selectivity (in words) [5]: the preferred guest in both cases is lysine; extent of the difference, diamines bind better than butyl amine ([5]; ratio of binding constants, Table 3): 160 fold; Isat/I0, Diaminobutane [8]: 27; Ka, Diaminobutane [8]: 1477 M⁻¹; Isat/I0, Diaminopentane [9]: 18; Ka, Diaminopentane [9]: 2200 M⁻¹ |
| NC(CCC(=O)O)C(=O)O (stereo not shown) | 0.87 | 7.0 | 25 | 6.8 M⁻¹ | – | – | – | – | – |
| NCCc1ccc(O)cc1 [Tyramine] | 0.41 | 8.0 | 52 | 250 M⁻¹ | – | – | – | – | binding affinity for sensor Ia (in words) [2]: significantly reduced affinity |
| CN(C)c1ccc2c(SCCCSc3c(C=O)c(=O)n(Cc4ccccc4)c4cc(N(C)C)ccc34)c(C=O)c(=O)n(Cc3ccccc3)c2c1 [Sensor IIIf] | – | – | – | – | 24 | 1460 M⁻¹ | 31 M⁻¹ | 26 | Isat/I0, Diaminopropane [3]: 15; Ka, Diaminopropane ([3]; excitation 495 nm): 2100 M⁻¹; Isat/I0, Ornithine [4]: 22; Ka, Ornithine [4]: 550 M⁻¹; guest selectivity (in words) [5]: the preferred guest in both cases is lysine; Isat/I0, Diaminobutane [8]: 24; Ka, Diaminobutane [8]: 690 M⁻¹; Isat/I0, Diaminopentane [9]: 24; Ka, Diaminopentane [9]: 270 M⁻¹ |
| CCSc1c(C=O)c(=O)n(Cc2ccccc2)c2cc(N(C)C)ccc12 [Sensor IIa, 1-benzyl-7-(dimethylamino)-4-(ethylthio)-2-oxo-1,2-dihydroquinoline-3-carbaldehyde] | – | – | – | – | 41 | 129 M⁻¹ | 76 M⁻¹ | 32 | membrane / cell permeability [10]: membrane permeable; staining of cells seen by confocal microscopy [10]: selectively stained; also recorded: punctate staining; staining of cells seen by confocal microscopy ([10]; listed as 112): selectively stained; optimal sensor concentration ([10]; 15 minutes of equilibration time): 0.5 µM |
| NCC(O)c1ccc(O)c(O)c1 (stereo not shown) [norepinephrine] | 0.39 | 0.46 | – | 6500 M⁻¹ | – | – | – | – | – |
| NCCCCC(N)C(=O)O (stereo not shown) | 0.75 | 8.0 | 25 | 4.0 M⁻¹ | – | – | – | – | – |
| CN(C)c1ccc2c(Sc3ccccc3Sc3c(C=O)c(=O)n(Cc4ccccc4)c4cc(N(C)C)ccc34)c(C=O)c(=O)n(Cc3ccccc3)c2c1 [Sensor IIIe] | – | – | – | – | 10 | 800 M⁻¹ | 30 M⁻¹ | 10 | Isat/I0, Diaminopropane [3]: 8.5; Ka, Diaminopropane ([3]; excitation 495 nm): 350 M⁻¹; Isat/I0, Ornithine [4]: 7.3; Ka, Ornithine [4]: 680 M⁻¹; Isat/I0, Diaminobutane [8]: 10; Ka, Diaminobutane [8]: 160 M⁻¹; Isat/I0, Diaminopentane [9]: 4.3; Ka, Diaminopentane [9]: 350 M⁻¹ |
| CN(C)c1ccc2c(Sc3cccc(Sc4c(C=O)c(=O)n(Cc5ccccc5)c5cc(N(C)C)ccc45)c3)c(C=O)c(=O)n(Cc3ccccc3)c2c1 [Sensor IIId, meta-Benzenedithiol Dimer] | – | – | – | – | 4.7 | 2100 M⁻¹ | 72 M⁻¹ | 8.8 | Isat/I0, Diaminopropane [3]: 16; Ka, Diaminopropane ([3]; excitation 495 nm): 3400 M⁻¹; Isat/I0, Ornithine [4]: 13; Ka, Ornithine [4]: 3300 M⁻¹; guest selectivity (in words) [5]: preference for ornithine; Isat/I0, Diaminobutane [8]: 15; Ka, Diaminobutane [8]: 1600 M⁻¹; Isat/I0, Diaminopentane [9]: 15; Ka, Diaminopentane [9]: 1200 M⁻¹ |
